Data as given in US4994450A, “Azacyclic compounds and their use as analgesic agents” (Dr. Lo. Zambeletti S.p.A., priority 1988, dated 1991).
Counter-ions that a name gives are not always drawn.

Tests used:
[1] = molecular target: T1, Kappa opiate receptor (spinal cord) (Cavia porcellus, UniProt P41144); test: Opiate receptor binding, kappa (spinal cord)
T1 construct: spinal cord kappa-receptors; from tissue
Experimental: (§1) The binding to the K-sites is performed using ^3 H-Ethyl Ketocyclazocine, a non-selective benzomorphan compound which binds to μ, δ and K-sites, in the presence of 100nM of unlabelled DAGO and 100nM of the enkephalin analogue [DAla^2 -DLeu^5 ]Enkephalin (DADLE), to prevent μ and δ binding respectively.
Final homogenate with solutions of the cold ligand and of the labelled ligand is incubated for 40 min. at 25° C., filtered through Whatman GF/C glass filter discs and washed.
(§2) The radioactivity bound to the filters is counted by liquid scintillation spectrophotometry.
(§3) The non-specific binding is determined in the presence of 500nM of the benzomorphan non-selective compound Mr 2266.
(§4) The equilibrium dissociation constant (KD) and the maximum binding capacity (Bmax) are determined from the analysis of saturation curves, while the inhibition constant (Ki) is determined from the analysis of competition experiments (Hill 1910; Scatchard 1949; Cheng and Prusoff 1973; Gillan et al. 1980) Published references are summarised as follows: […]

[2] = test system: mice; test: Tail-flick test in mice; assay type: in vivo, mouse (male Charles River, Swiss Strain); conditions: subcutaneous, 30 min pretreatment
Experimental: (B) Tail-flick test in mice
The methodology employed is based on that described by D'Amour and Smith, J. Pharmacol. Exp. Ther. 72. 74/1941.
Male Charles River mice (Swiss Strain), 22-34g body weight were used. Animals were allowed food and water ad libitum and were randomized into groups of 10 prior to experimentation.
Test compounds were dissolved in either distilled water or distilled water plus 0.1 M AMS and administered by the subcutaneous route in a final volume of 10 ml/Kg. Control animals received 10 ml/kg of the appropriate vehicle alone. Following a pretreatment period of 30 min., the mice were again placed under the heat source and the reaction tine re-determined.
Percentage quantal protection was determined as the number of mice in which the reaction time was doubled compared to pretreatment values, expressed as a percentage of the total number of mice in the group.

[3] = molecular target: T2, Kappa opiate receptor (brain) (Cavia porcellus, UniProt P41144); test: Opiate receptor binding, kappa (brain); set-up: species or system guinea pig
T2 construct: performed on fresh guinea pig brain homogenate; from tissue; host or cells: guinea pig whole brain without cerebellum, homogenate
T2 sequence (P41144 whole entry): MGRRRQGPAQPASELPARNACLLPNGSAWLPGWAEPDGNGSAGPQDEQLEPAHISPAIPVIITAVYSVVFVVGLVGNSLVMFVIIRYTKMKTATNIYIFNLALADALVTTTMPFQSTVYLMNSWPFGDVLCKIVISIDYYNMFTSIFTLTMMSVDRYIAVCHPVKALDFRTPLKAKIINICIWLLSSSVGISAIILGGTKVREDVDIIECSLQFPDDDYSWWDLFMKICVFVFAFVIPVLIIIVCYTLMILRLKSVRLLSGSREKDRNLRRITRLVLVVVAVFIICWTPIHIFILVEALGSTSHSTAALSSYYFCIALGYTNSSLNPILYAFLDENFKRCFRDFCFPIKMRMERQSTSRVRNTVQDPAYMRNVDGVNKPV
Experimental: (§5) Radio receptor binding to μ and K sites is performed on fresh guinea pig brain homogenate prepared according to Kosterlitz. (1981).
(§6) Whole brain without cerebellum is homogenized in 50 mM, Tris-buffer (pH 7.4 at 0° C.) and centrifuged at 49,000×g×10 min.
(§7) The pellet is then resuspended in the same buffer, incubated at 37° C. for 45 min. and centrifuged again.
(§8) 1.9 ml of the final homogenate (1:100 in Tris-pH 7.4, 0° C.) is used for the binding assay.
as §1, with “respectively. […]” for “respectively.”
as §2, §3, §4

[4] = molecular target: T3, Mu opiate receptor (brain) (Cavia porcellus, UniProt A0ACM8Q262); test: Opiate receptor binding, mu (brain); set-up: species or system guinea pig; conditions: 3H-DAGO, 40 min, 25° C.
T3 construct: [3H]DAGO (DAMGO) displacement
T3 sequence (A0ACM8Q262 1-400): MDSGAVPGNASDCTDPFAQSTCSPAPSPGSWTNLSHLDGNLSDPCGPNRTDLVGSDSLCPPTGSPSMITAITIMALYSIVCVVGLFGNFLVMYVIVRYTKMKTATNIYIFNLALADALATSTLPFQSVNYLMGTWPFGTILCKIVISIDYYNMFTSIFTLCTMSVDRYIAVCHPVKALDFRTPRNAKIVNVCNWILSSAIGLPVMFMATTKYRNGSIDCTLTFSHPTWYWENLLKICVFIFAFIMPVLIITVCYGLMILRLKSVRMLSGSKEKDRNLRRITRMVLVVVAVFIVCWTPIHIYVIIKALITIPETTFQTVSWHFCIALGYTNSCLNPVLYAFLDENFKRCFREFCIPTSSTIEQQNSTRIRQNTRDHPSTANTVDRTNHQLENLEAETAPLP
Experimental: as §5, §6, §7, §8
^3 H [D-Ala^2, MePhe^4, Gly-ol^5 ] Enkephalin (^3 H-DAGO), an enkephalin analogue that binds selectively to μ receptor, is added to the biological substrate and incubated at 25° C. for 40 min., filtered through Whatman GF-C and washed with ice-cold Tris-buffer.
The filters are then dryed, solubilized in Filtercount and the radioactivity monitored. Non specific binding is determined in the presence of 10^-6 M Naloxone.
as §4

[5] = test system: mice; test: P-phenylquinone-induced abdominal writhing test in mice; assay type: in vivo, mouse (male Charles River, Swiss Strain); conditions: Mus musculus, sc; subcutaneous, 20 min pretreatment, p-phenylquinone 2 mg/Kg i.p.
Experimental: (A) P-phenylquinone-induced abdominal writing test in mice
The methodology employed is based on that described by Sigmund et al, Proc. Soc. Exptl. Biol. 95, 729/1957, modified by Milne and Twomey, Agents and Actions, 10, 31/1980.
Male Charles River mice (Swiss Strain), 25-36g body weight, were used. Animals were allowed food and water ad libitum and were randomized into groups of 10 prior to experimentation. Test compounds were dissolved in either distilled water or distilled water plus 0.1 M AMS, and administered by the subcutaneous route in a final volume of 10 ml/Kg. Control animals received 10 ml/Kg of the appropriate vehicle alone. Following a pretreatment period of 20 min., mice were injected intraperitoneally with p-phenylquinone, 2 mg/Kg at 37° C. in a final volume of […]. […] During this period the number of abdominal writhing responses per animal were recorded where writhing consists of an intermittent contraction of the abdomen associated with hind leg extension.
The degree of antinociceptive protection afforded by the test compound was determined as the mean number of writhing responses observed in the treated group (T) expressed as a percentage of the mean number of writhing responses in the control group (C) according to the following formula:
[1-(T/C]×100%=% graded protection

T1 sequence (P41144 whole entry): as the sequence (P41144 whole entry) above

Row | Structure (SMILES) | Ki [1] [nM] | MOUSE TAIL-FLICK % Analgesia ([2]; dose 0.233 mg/kg) [%] | Ki [3] [nM] | Ki [4] [nM] | ED50 [5] [mg/kg] | MOUSE TAIL-FLICK % Analgesia ([2]; dose 0.550 mg/kg) [%] | MOUSE TAIL-FLICK % Analgesia ([2]; dose 8.6 mg/kg) [%] | MOUSE TAIL-FLICK % Analgesia ([2]; dose 10 mg/kg) [%]
1 | O=C1CCCc2cc(CC(=O)N3CCCC[C@H]3CN3CCCC3)ccc21 [Example 2, (2S)-1-[1-oxo-3,4,-dihydro-(2H)-naphth-6-yl]acetyl-2-(pyrrolidin-1-yl)methyl-piperidine hydrochloride] | 2.21 | 50 | 49 | 2980 | 0.138 |  |  | 
2 | O=C1CCCc2cc(CC(=O)N3CCCCC3CN3CCCC3)ccc21 (stereo not drawn) [Example 1, 1-[1-oxo-3,4,-dihydro-(2H)-naphth-6-yl]acetyl-2-(pyrrolidin-1-yl)methyl-piperidine hydrochloride] | 5.24 |  | 81.7 | > 1000 | 0.235 | 50 |  | 
3 | CC(=O)c1ccc(CC(=O)N2CCCC[C@H]2CN2CCCC2)cc1C [Example 4, (2S)-1-(3-methyl-4-acetylphenyl)acetyl-2-(pyrrolidin-1-yl)methyl-piperidinehydrochloride hydrate] |  |  |  |  |  |  | 80 | 
4 | O=C1CCCc2ccc(CC(=O)N3CCCC[C@H]3CN3CCCC3)cc21 [Example 6, (2S)-1-[1-oxo-3,4-dihydro-(2H)-naphth-7-yl] acetyl-2-(pyrrolidin-1-yl)methyl-piperidine hydrochloride] |  |  |  |  |  |  |  | 80
